Experimental data as given in US12721838B2 (Henry Ford Health System, priority 2020, dated 2026).
Like-named read-outs stand apart in the source and are kept apart here.

What was measured:
TRIB2 = molecular target: T1, TRIB2 (Homo sapiens, UniProt Q92519); experiment: Western blot of TRIB2 protein levels in cancer cells; assay type: cell-based; design: Whole cell lysate proteins were analyzed by Western blot; endogenous in cells; host or cells: LNCaP-ENR (enzalutamide-resistant LNCaP) cells; conditions: for TRIB2 protein levels: LNCaP-ENR cells, 24 hours
T1 sequence (Q92519 1-343): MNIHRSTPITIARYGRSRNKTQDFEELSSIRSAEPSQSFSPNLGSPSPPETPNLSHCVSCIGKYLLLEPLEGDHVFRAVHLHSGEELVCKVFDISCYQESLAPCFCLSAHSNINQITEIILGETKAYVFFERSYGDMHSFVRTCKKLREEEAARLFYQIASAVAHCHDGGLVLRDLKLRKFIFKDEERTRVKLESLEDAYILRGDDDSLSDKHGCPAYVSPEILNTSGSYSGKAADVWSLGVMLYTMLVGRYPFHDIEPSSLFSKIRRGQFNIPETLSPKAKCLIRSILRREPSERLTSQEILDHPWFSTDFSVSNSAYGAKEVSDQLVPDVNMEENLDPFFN
Method: Enzalutamide-resistant prostate cancer (ERPC) cells (LNCaP-ENR cells) were plated and treated with 10 μM each of various compounds for 24 hours. Exemplary methods for developing and using LNCaP-ENR cells is disclosed in Monga, J., Subramani, D., Bharathan, A., and Ghosh, J. (2020) “Pharmacological and genetic targeting of 5-lipoxygenase interrupts c-Myc oncogenic signaling and kills enzalutamide-resistant prostate cancer cells via apoptosis.” Scientific Reports 10: 6649, the disclosure of which is incorporated herein by reference in its entirety. Whole cell lysate proteins were analyzed by Western blot. TRIB2 antibody was used to detect protein levels of TRIB2 and GAPDH was used as loading control. Monoclonal anti-Trib2 antibody was purchased from Santa Cruz Biotech, Santa Cruz, CA.
LNCaP-ENR cells were treated with varying doses (4 μM, 8 μM, or 12 μM) of DCV for 24 hours. Effects on TRIB2 protein levels and its downstream targets (e.g., pAkt, Bcl-xL, Survivin, and FOXO3) were analyzed by Western blot. GAPDH was used as loading control. Protein levels of TRIB2, pAKT (S473), Bcl-xL, and Survivin were reduced in cells treated with 12 μM of DCV compared to control-treated cells (FIG. 3A). Levels of FOXO3 protein were increased at 12 μM of DCV treatment compared to control treatment. This was expected, as FOXO3 level is known to be decreased by Trib2. These effects on cellular protein levels were DCV concentration-dependent, with the most pronounced effects observed at the highest concentration tested (12 μM).

c-JNK, caspase 3 = experiment: Activation of c-JNK and caspase 3; assay type: cell-based, human; conditions: LNCaP-ENR cells
Method: To explore the underlying mechanism of DCV-induced apoptosis in ERPC cells, the effect of DCV on Jun N-terminal kinases (JNKs) was analyzed. JNKs play a critical role in apoptotic pathways. […] Both caspase-dependent and caspase-independent apoptotic cell death processes are known.

p-glycoprotein (PGP) = p-glycoprotein (PGP) (Homo sapiens, UniProt P08183); conditions: cited from earlier work
pure Trib2 protein = molecular target: T2, pure Trib2 protein (Homo sapiens, UniProt Q92519); experiment: Thermal shift assay by Differential Scanning Spectro-fluorometry; assay type: binding; conditions: decreased from 41° C. (DMSO only)
T2 sequence (Q92519 1-343): T1 sequence (Q92519 1-343)
From the text: FIG. 8 depicts a graph showing the results of a thermal shift assay of pure Trib2 protein by Differential Scanning Spectro-fluorometry.

luciferase = molecular target: T3, luciferase (Renilla reniformis, UniProt P27652); experiment: Counter-screen with control luciferase-transfected HFF cells; assay type: cell-based
T3 construct: expressed in transfected cells; host or cells: human foreskin fibroblasts (HFF)
T3 sequence (P27652 1-311): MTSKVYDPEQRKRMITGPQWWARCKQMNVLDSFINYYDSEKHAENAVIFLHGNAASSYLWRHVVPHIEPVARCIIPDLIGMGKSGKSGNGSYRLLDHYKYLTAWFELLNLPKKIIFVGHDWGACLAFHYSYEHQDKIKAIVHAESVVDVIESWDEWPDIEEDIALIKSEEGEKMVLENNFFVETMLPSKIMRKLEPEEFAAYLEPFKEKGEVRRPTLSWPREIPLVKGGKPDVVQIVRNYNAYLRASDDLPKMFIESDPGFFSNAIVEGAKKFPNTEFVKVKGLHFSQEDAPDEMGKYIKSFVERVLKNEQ
Method: Human foreskin fibroblast cells (HFF) cells were transfected with a Trib2-Luciferase (Luc-Trib2) fusion construct. Cells were plated in 96-well tissue culture plates and treated with compounds (10 μM) for 24 hours. Luciferase activity was measured using an EnduRen™ Live cell substrate kit (commercially available from PROMEGA CORP.®, Madison, WI). […] For further development, selected compounds were counter-screened with control luciferase-transfected HFF cells.
The main hurdle to develop agents to inhibit Trib2 is the lack of a quick and easy assay procedure to effectively screen large number of compounds. To overcome this problem, the present disclosure provides a design for a new assay system to measure the active state of Trib2 protein. The present disclosure describes a Trib2-luciferase gene construct by combining the full length human Trib2 gene with the luciferase gene from Renilla. Destabilization of the three-dimensional conformation of the resultant Trib2-luc fusion protein can deliver reportable outcome via alteration in the enzymatic activity of luciferase. A second screen was designed to eliminate compounds that affects the activity of only luciferase. […] Thus, the luciferase-based assay system (involving first screen and a counter-screen) of the present disclosure emerges as an effective way to identify Trib2-targeting drugs using simple gene transfected cell lines in culture.
Here, the screening strategy used to select compounds based on inhibition of luciferase activity in Trib2-Luc cells, but not in Luc cells. Compounds screened included a representative set of 104 FDA-approved compounds on Trib2-Luciferase fusion construct-transfected HFF cells are shown here. Cells were treated with compounds (10 μM) for 24 hours and measured luciferase activity using a kit from Promega Corp. (Madison, WI). For further development selected compounds are counter-screened with control luciferase-transfected HFF cells.

normal, non-cancer cells = experiment: Effects on normal, non-cancer cells; assay type: cell-based; conditions: same experimental conditions as ERPC cells

Chain of p-glycoprotein (PGP) (P08183 whole entry): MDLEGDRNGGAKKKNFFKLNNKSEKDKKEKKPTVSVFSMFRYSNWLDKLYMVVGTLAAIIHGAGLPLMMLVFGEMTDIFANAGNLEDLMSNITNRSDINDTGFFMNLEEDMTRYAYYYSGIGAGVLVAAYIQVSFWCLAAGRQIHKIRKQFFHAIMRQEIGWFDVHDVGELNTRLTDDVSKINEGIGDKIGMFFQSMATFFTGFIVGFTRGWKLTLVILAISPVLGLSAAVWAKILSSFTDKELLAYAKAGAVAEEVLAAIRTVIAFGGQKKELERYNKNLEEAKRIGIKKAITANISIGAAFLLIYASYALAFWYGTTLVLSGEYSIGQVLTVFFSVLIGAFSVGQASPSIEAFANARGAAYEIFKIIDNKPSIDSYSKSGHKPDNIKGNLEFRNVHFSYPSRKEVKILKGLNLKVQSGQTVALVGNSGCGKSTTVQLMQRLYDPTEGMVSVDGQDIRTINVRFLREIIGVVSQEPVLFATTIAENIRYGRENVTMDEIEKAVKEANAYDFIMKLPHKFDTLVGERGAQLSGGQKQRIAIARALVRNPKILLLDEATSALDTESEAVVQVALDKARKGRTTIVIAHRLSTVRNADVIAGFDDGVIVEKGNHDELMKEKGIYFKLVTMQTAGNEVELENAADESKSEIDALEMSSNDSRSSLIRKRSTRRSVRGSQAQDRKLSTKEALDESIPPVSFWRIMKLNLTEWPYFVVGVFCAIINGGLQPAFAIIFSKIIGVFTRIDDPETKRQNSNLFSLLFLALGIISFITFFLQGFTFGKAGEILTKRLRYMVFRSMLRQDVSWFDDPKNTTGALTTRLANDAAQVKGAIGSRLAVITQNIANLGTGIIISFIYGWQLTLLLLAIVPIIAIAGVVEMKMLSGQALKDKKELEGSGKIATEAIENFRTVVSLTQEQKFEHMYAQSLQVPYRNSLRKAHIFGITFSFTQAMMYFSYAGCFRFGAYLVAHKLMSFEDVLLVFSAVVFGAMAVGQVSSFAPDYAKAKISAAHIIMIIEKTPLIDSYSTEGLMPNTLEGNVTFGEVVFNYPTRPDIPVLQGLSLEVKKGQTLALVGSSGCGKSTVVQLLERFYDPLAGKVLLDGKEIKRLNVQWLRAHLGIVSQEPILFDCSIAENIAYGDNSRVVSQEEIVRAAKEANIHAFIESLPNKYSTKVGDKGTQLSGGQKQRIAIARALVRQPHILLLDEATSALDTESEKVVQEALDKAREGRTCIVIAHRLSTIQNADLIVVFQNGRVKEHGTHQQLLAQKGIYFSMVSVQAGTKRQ

## COC(=O)N[C@H](C(=O)N1CCC[C@H]1c1nc(-c2ccc(-c3ccc(-c4c[nH]c([C@@H]5CCCN5C(=O)[C@@H](NC(=O)OC)C(C)C)n4)cc3)cc2)c[nH]1)C(C)C [Daclatasvir, 4,4′-bis[2-((2S)-1-{(2S)-2-[(methoxycarbonyl)amino]-3-methylbutanoyl}-2-pyrrolidinyl)-1H-imidazol-4-yl]-1,1′-biphenyl]
TRIB2; 10 μM, Western blot
  TRIB2 protein levels: downregulated
TRIB2; 12 μM, vs control-treated cells
  TRIB2 protein levels: reduced
TRIB2; range of aggressive cancer cell lines, including prostate, lung, and kidney
  Trib2 protein level: downregulates
c-JNK, caspase 3
  activation of caspase 3: induces activation
c-JNK, caspase 3; dose-dependent
  activation of c-JNK: rapid and robust activation
p-glycoprotein (PGP)
  action on p-glycoprotein (PGP): inhibitor
Pure Trib2 protein
  Tm of Trib2 protein in presence of DCV: 37 °C
luciferase
  inhibition of control luciferase activity (counter-screen, without Trib2): passed counter-screen tests
luciferase; listed as DCV
  inhibition of control luciferase activity (counter-screen, without Trib2): does not inhibit control luciferase activity
luciferase; listed as daclatasvir
  inhibition of control luciferase activity (counter-screen, without Trib2): does not inhibit luciferase activity in the absence of Trib2
normal, non-cancer cells
  effects on normal, non-cancer cells: minimal effects
